Test results: patent publication US20030225044A1, “Method to increase serum levels of vitamins in animals including humans” (priority 2002, published 2003)

Key:
Assay type in all cases: in vivo, beef steers
[1] = Buccal versus nasal administration, serum 25-Hydroxy-Vitamin D3 (Example IV); conditions: for serum level change for each milligram administered: after 6 hours (FIG. 7)
Protocol: To study the dose/response efficacy of buccal administration of one or more vitamins, beef steers of mixed breeding were used to evaluate three treatments (3 replications). These three treatments were:
(§1) Treatments were applied and cattle were bled via jugular venipuncture at 0 and 6 hours post-dosing.

[2] = Serum 25-Hydroxy-Vitamin D3 after intravenous infusion (Example I); conditions: 125 mg intravenous infusion
Protocol: Applicants infused three (3) beef steers of mixed breeding with 125 milligrams of 25-Hydroxy-Vitamin D3 intravenously. Blood was drawn just prior to the intravenous infusion and at 6 hours and 24 hours post administration.
Point 120, representing 116 nanomoles per liter, comprises the serum level of 25-Hydroxy-Vitamin D3 just prior to the intravenous infusion. At 6 hours post administration, the serum blood level was measured as 2432 nanomoles per liter, i.e. point 130. […] At 24 hours post administration, the serum blood level was measured as 1011 nanomoles per liter, i.e. point 140.

[3] = Serum 25-Hydroxy-Vitamin D3 after intranasal or transdermal administration (Example II); conditions: for fold increase in the 25-Hydroxy-Vitamin D3 serum level / percent increase in the 25-Hydroxy-Vitamin D3 serum level: nasal delivery
Protocol: These five treatments were:
Treatments were applied and cattle were bled via jugular venipuncture at 0, 6, and 24 hours post-dosing.

[4] = Dose/response of nasal administration, serum 25-Hydroxy-Vitamin D3 (Example III); conditions: intranasal
Protocol: To study the dose/response efficacy of nasal administration of Vitamin D, twelve (12) beef steers of mixed breeding were used to evaluate four treatments (3 replications). These four treatments were:
as §1

[5] = Treatment 2: 125 mg 25-OH D3, ethanol, intranasal, 6 Hours
[6] = Treatment 2: 125 mg 25-OH D3, ethanol, intranasal, 24 Hours
[7] = Treatment 2: 125 mg 25-OH D3, ethanol, intranasal, time 0
[8] = Treatment 2: 125 mg in ethanol, 6 hours post administration (FIG. 2, point 212)
[9] = Treatment 2: 125 mg in ethanol, 24 hours post administration (FIG. 2, point 214)
[10] = Treatment 3: 125 mg 25-OH D3, powder, intranasal, 6 Hours
[11] = Treatment 3: 125 mg 25-OH D3, powder, intranasal, 24 Hours
[12] = Treatment 3: 125 mg 25-OH D3, powder, intranasal, time 0
[13] = Treatment 4: 125 mg 25-OH D3, corn oil, intranasal, 6 Hours
[14] = Treatment 4: 125 mg 25-OH D3, corn oil, intranasal, 24 Hours
[15] = Treatment 4: 125 mg 25-OH D3, corn oil, intranasal, time 0
[16] = Treatment 5: 125 mg 25-OH D3, transdermal (inner ear), 6 Hours
[17] = Treatment 5: 125 mg 25-OH D3, transdermal (inner ear), 24 Hours
[18] = Treatment 5: 125 mg 25-OH D3, transdermal (inner ear), time 0

In the case of `C=C1CC[C@H](O)C/C1=C/C=C1\CCC[C@]2(C)[C@@H]([C@H](C)CCCC(C)(C)O)CC[C@@H]12` [25-Hydroxy-Vitamin D3], the “serum level change for each milligram administered” value ([1]; Buccal administration (Treatment 3, 120 mg in 1 ml ethanol)) is reported as “about 0.63 nmol/L for each milligram administered”, the “serum level change for each milligram administered” value ([1]; Nasal administration (Treatment 2, 120 mg in 1 ml ethanol)) is reported as “about 0.57 nmol/L for each milligram administered” and the “Average Serum Levels-25-Hydroxy-Vitamin D3” value ([1]; Treatment 2: 120 mg 25-OH D3 in 1 ml ethanol, intranasal, 6 Hours) is reported as 191.67 nmol/L. For the same compound, the “Average Serum Levels-25-Hydroxy-Vitamin D3” value ([1]; Treatment 2: 120 mg 25-OH D3 in 1 ml ethanol, intranasal, time 0) was 122.33 nmol/L, the “effectiveness of buccal administration compared with nasal administration” value ([1]; Treatment 3, buccal, in ethanol, versus Treatment 2, nasal, 0 to 6 hours (FIG. 6, curves 610 and 620)) was “comparatively as effective as nasal administration” and the “Average Serum Levels-25-Hydroxy-Vitamin D3” value ([1]; Treatment 3: 120 mg 25-OH D3 in 1 ml ethanol, buccal, 6 Hours) was 158.00 nmol/L. The “Average Serum Levels-25-Hydroxy-Vitamin D3” value ([1]; Treatment 3: 120 mg 25-OH D3 in 1 ml ethanol, buccal, time 0) was 82.00 nmol/L, the “course of serum level of 25-Hydroxy-Vitamin D3” value (“course” below) ([2]; 0 to 6 hours (FIG. 1, curve portion 112)) was “increases from 0 hours to 6 hours post administration” and the “course” value ([2]; 6 to 24 hours (FIG. 1, curve portion 114)) was “decreases from 6 hours to 24 hours post administration”. For the same compound, the “serum level of 25-Hydroxy-Vitamin D3” value ([2]; 6 hours post administration) was 2432 nanomoles per liter, the “serum level of 25-Hydroxy-Vitamin D3” value ([2]; 24 hours post administration) was 1011 nanomoles per liter and the “serum level of 25-Hydroxy-Vitamin D3” value ([2]; just prior to infusion) was 116 nanomoles per liter. For the same compound, the “Average Serum Levels-25-Hydroxy-Vitamin D3” value [3, 5] was 226 nmol/L, the “Multiple change from time 0 of serum 25-Hydroxy-Vitamin D3” value (“Multiple change” below) [3, 5] was 3.0 and the “Average Serum Levels-25-Hydroxy-Vitamin D3” value [3, 6] was 354 nmol/L. The “Multiple change” value [3, 6] was 4.7, the “Average Serum Levels-25-Hydroxy-Vitamin D3” value [3, 7] was 75 nmol/L and the “Multiple change” value [3, 7] was 0. For the same compound, the “course” value ([3]; Treatment 2: 125 mg in ethanol, nasal delivery (FIG. 2, curve 210)) was “increases throughout the time period from 0 hours to 24 hours post administration”, the “fold increase in the 25-Hydroxy-Vitamin D3 serum level” value [3, 8] was “more than a three fold increases” and the “percent increase in the 25-Hydroxy-Vitamin D3 serum level” value [3, 8] was about 200%. The “fold increase in the 25-Hydroxy-Vitamin D3 serum level” value [3, 9] was “greater than 4.7 fold”, the “percent increase in the 25-Hydroxy-Vitamin D3 serum level” value [3, 9] was about 375% and the “Average Serum Levels-25-Hydroxy-Vitamin D3” value [3, 10] was 104 nmol/L. For the same compound, the “Multiple change” value [3, 10] was 1.2, the “Average Serum Levels-25-Hydroxy-Vitamin D3” value [3, 11] was 156 nmol/L and the “Multiple change” value [3, 11] was 1.9. For the same compound, the “Average Serum Levels-25-Hydroxy-Vitamin D3” value [3, 12] was 83 nmol/L, the “Multiple change” value [3, 12] was 0 and the “course” value ([3]; Treatment 3: 125 mg powder, nasal delivery (FIG. 2, curve 220)) was “increases throughout the time period from 0 hours to 24 hours post administration”. The “Average Serum Levels-25-Hydroxy-Vitamin D3” value [3, 13] was 95 nmol/L, the “Multiple change” value [3, 13] was 1.0 and the “Average Serum Levels-25-Hydroxy-Vitamin D3” value [3, 14] was 179 nmol/L. For the same compound, the “Multiple change” value [3, 14] was 1.9, the “Average Serum Levels-25-Hydroxy-Vitamin D3” value [3, 15] was 94 nmol/L and the “Multiple change” value [3, 15] was 0. For the same compound, the “course” value ([3]; Treatment 4: 125 mg in corn oil, nasal delivery (FIG. 2, curve 230)) was “increases throughout the time period from 6 hours to 24 hours post administration”, the “Average Serum Levels-25-Hydroxy-Vitamin D3” value [3, 16] was 81 nmol/L and the “Multiple change” value [3, 16] was 1.1. The “Average Serum Levels-25-Hydroxy-Vitamin D3” value [3, 17] was 96 nmol/L, the “Multiple change” value [3, 17] was 1.3 and the “Average Serum Levels-25-Hydroxy-Vitamin D3” value [3, 18] was 74 nmol/L. The “Multiple change” value [3, 18] was 0, the “Average Serum Levels-25-Hydroxy-Vitamin D3” value ([4]; Treatment 2: 30 mg 25-OH D3 in 1 ml ethanol, 6 Hours) was 149.67 nmoI/L and the “Average Serum Levels-25-Hydroxy-Vitamin D3” value ([4]; Treatment 2: 30 mg 25-OH D3 in 1 ml ethanol, time 0) was 121.33 nmoI/L. For the same compound, the “change in serum level per milligram administered, compared among dosages” value ([4]; Treatment 2: 30 mg in 1 ml ethanol, 6 hours, versus 60, 90, 120 mg (FIG. 5)) was “maximum change in serum level per milligram administered”, the “Average Serum Levels-25-Hydroxy-Vitamin D3” value ([4]; Treatment 3: 60 mg 25-OH D3 in 1 ml ethanol, 6 Hours) was 184.33 nmoI/L and the “Average Serum Levels-25-Hydroxy-Vitamin D3” value ([4]; Treatment 3: 60 mg 25-OH D3 in 1 ml ethanol, time 0) was 144.67 nmoI/L. The “Average Serum Levels-25-Hydroxy-Vitamin D3” value ([4]; Treatment 4: 90 mg 25-OH D3 in 1 ml ethanol, 6 Hours) was 180.67 nmoI/L, the “Average Serum Levels-25-Hydroxy-Vitamin D3” value ([4]; Treatment 4: 90 mg 25-OH D3 in 1 ml ethanol, time 0) was 131.33 nmoI/L and the “Average Serum Levels-25-Hydroxy-Vitamin D3” value ([4]; Treatment 5: 120 mg 25-OH D3 in 1 ml ethanol, 6 Hours) was 191.67 nmoI/L. The “Average Serum Levels-25-Hydroxy-Vitamin D3” value ([4]; Treatment 5: 120 mg 25-OH D3 in 1 ml ethanol, time 0) was 122.33 nmoI/L.
